Biological target: Rab7 GTPase wildtype (dog), GST fusion
Test: Rab7 wildtype GTP binding inhibitors, SAR follow-up, biochemical, dog Rab7, bead multiplex flow cytometry, Bodipy-FL-GTP, pyrazoline series (AID 2041)
Conditions: Bead-based flow cytometry, Ki calculated from EC50

COc1ccc(C2CC(c3ccc(F)cc3)=NN2c2cc(Cl)ccc2Cl)cc1 (stereo not drawn)
Ki: 730 nM

COc1ccccc1N1N=C(c2ccccc2)CC1c1ccccc1 (stereo not drawn)
Ki: 660 nM

O=S(=O)(c1ccc(N2N=C(c3ccccc3)CC2c2ccccc2)cc1)C(F)F (stereo not drawn)
Ki: 30 nM

COc1ccc(C2=NN(c3cccc(F)c3)C(c3ccc(OC)cc3)C2)cc1 (stereo not drawn)
Ki: 10 nM

COc1ccc(C2CC(c3cccc(Cl)c3)=NN2c2ccc(S(N)(=O)=O)cc2)cc1 (stereo not drawn)
Ki: 10 nM

COc1ccc(C2=NN(c3ccccc3)C(c3ccc(Cl)cc3)C2)cc1 (stereo not drawn)
Ki: 40 nM

COc1ccc(C2CC(c3ccc(F)cc3)=NN2c2cccc(F)c2)cc1OC (stereo not drawn)
Ki: 1470 nM

Clc1ccc(N2N=C(c3ccccc3)CC2c2ccccc2)cc1 (stereo not drawn)
Ki: 430 nM

Source: PubChem BioAssay AID2041 (NMMLSC, 2009)
